Source: patent US20130131140A1, “TREATMENT OF DIABETES AND DISORDERS ASSOCIATED WITH VISCERAL OBESITY WITH INHIBITORS OF HUMAN ARACHIDONATE 12 LIPOXYGENASE AND ARACHIDONATE 15-LIPOXYGENASE” (priority 2010, published 2013)
“Also recorded” adds a separate entry of the source.

Experiments:
human islets [1] = assay: Glucose-stimulated insulin secretion in human islets; assay type: cell-based; conditions: for effect on insulin secretion: human islets, 1 and 100 nM, 4 hours incubation, then 1 hour in 11 mM glucose
Description: In other studies, human islets were cultured in CMRL medium-1066 (Invitrogen) with 5% fetal bovine serum overnight and then transitioned to serum free Kreb-Ringer buffer at 37° C., and islets were incubated with and without HETEs in 3 and 18 mM glucose for 4 hours, as shown in FIG. 12. The supernatant was collected after each treatment, and insulin concentration in the supernatant was measured by an enzyme immunoassay method (Mercodia, Uppsala, Sweden) with a mouse or human insulin standard. The intraassay variation was less than 4%, and the interassay variation was less than 10%.
LOs catalyze the oxidation of linoleic acid and arachidonic acid, generating products of varying stability. […] Referring to FIGS. 13A and 13B, 12(S)-HETE, 15(S)-HETE, 12-HPETE, and 12-RHETE were tested at 1 and 100 nM doses to examine their effects on insulin secretion. Human islets were incubated with the various HETEs for 4 hours and then assessed for insulin secretion during a 1-hour period incubated in 11 mM glucose. Also confirmed were the effects of 12(S)-HETE on basal (3 mM) and stimulated (18 mM) glucose concentration.

p38-MAPK = assay: Western immunoblot of phosphorylated p38-MAPK in human islets; assay type: cell-based
From the text: (§1) Equal amounts of whole islet cell protein extracts were separated on polyacrylamide-sodium dodecyl sulfate gels and transferred to polyvinylidene difluoride transfer membranes (GE Healthcare, Buckinghamshire, UK). The blots were probed with primary antibodies, and bands were detected using horseradish […] secondary antibodies (GE Healthcare UK Limited, Chalfont, UK) and the enhanced chemiluminescence detection system (GE Healthcare).
(§2) Rabbit PAb anti-p38-MAPK (pTpY180/182) and anti-c-Jun N-terminal kinase (JNK)-1 and -2 (pTpY183/185) were purchased from Alpha BioSource/Invitrogen and were used at a 1:500 dilution. Mouse monoclonal anti-p38-MAPK (A-12) and rabbit polyclonal anti-actin (1-19) were purchased from Santa Cruz Biotechnology (Santa Cruz, Calif.). p38-MAPK was used at a 1:500 dilution, and actin was used at a 1:2500 dilution. Rabbit anti-12-LO (see Ref. 8) was used at a 1:1000 dilution.
(§3) To determine whether treating islets with 12(S)-HETE would affect the activity of two well-known stress-mediated pathways linked to β-cell damage, p38-MAPK and JNK in human islets, were investigated. […] The results are presented as the means±SD. *, P<0.05 compared with the corresponding control; #, P<0.05 compared with the cytokine treatment group.

JNK-1 and -2 = assay: Western immunoblot of phosphorylated JNK in human islets; assay type: cell-based; conditions: human islets treated with 12(S)-HETE
From the text: as §1, §2, §3

human islets [2] = assay: Cell death by propidium iodide (PI) fluorescence; assay type: cell-based; conditions: for cell death, PI staining intensity: overnight incubation
Description: Islets were treated with 20 μg/ml of propidium iodide (PI) and incubated for 10 minutes. Islets were imaged once under brightfield illumination to determine the islet borders and imaged again to measure PI fluorescence using 535-nm excitation and 617-nm emission as previously reported (11). Islets were circled, and the mean PI fluorescence intensity was determined for each islet individually. Three separate trials from three donors were conducted.
Islet cell death was evaluated by PI staining in islets after overnight incubation with 1, 10, or 100 nM 12(S)-HETE. […] This finding is consistent with dose-response measures of cell death previously observed with mouse islets (8).

human islets [3] = conditions: 50 μm LSF overnight pretreatment, then 1 nm 12(S)-HETE 4 hours
Description: Viability was assessed by detecting 3-(4,5-dimethylthiazol-2-yl)-2,5-diphenyltetrazolium bromide (MTT; Sigma-Aldrich) metabolism as previously described (17).
Human islets from four different human donors were pretreated with 50 μm LSF overnight or untreated as indicated. Islets were then treated with 1 nm 12(S)-HETE for 4 hours and incubated in 11 mm glucose for 1 hour to measure islet metabolic activity by MTT assay (A) or insulin secretion (B).

[4] = human islets treated with 12(S)-HETE

Q: What does the source list for `CCCCC/C=C\C[C@@H](O)/C=C/C=C\C/C=C\CCCC(=O)O` [12(S)-HETE, 12-hydroxyeicosatetraenoic acid]?
A: effect on insulin secretion (human islets [1]): consistently reduced; also recorded: most substantial reduction in insulin secretion; phosphorylated p38 (pp38) protein activity (p38-MAPK; [4]): increased phosphorylated p38; total p38-MAPK (p38) (p38-MAPK; [4]): without any change; phosphorylated JNK (ppJNK1 and -2) activity (JNK-1 and -2): not affected; increase in cell death (human islets [2]; 100 nM): 50%; cell death, PI staining intensity (human islets [2]; 100 nM): significant increase in cell death; cell death, PI staining intensity (human islets [2]; 1 or 10 nM): no significant increase in cell death

Q: How did the “effect on insulin secretion” value (human islets [1]) turn out when `CCCCC/C=C\CC(/C=C/C=C\C/C=C\CCCC(=O)O)OO` (stereo not drawn) [12-HPETE, 12-hydroperoxyeicosatetraenoic acid] was run?
A: The value was “consistently reduced”.

Q: And the “effect on insulin secretion” value (human islets [1]; listed as 12(S)HPETE)?
A: The value was “most substantial reduction in insulin secretion”.

Q: With `N#CC(=Cc1ccc(O)c(O)c1)C(=O)OCC=Cc1ccccc1` [CDC, cinnamyl-3,4-dihydroxy-α-cyanocinnamate] as the compound, how does the “cytokine-induced pp38-MAPK activity” value (p38-MAPK; human islets pretreated with CDC, cytokines TNF-α, IFN-γ, IL-1β) read?
A: Its value is “significantly reduced; also recorded: blocked”.

Q: `C[C@@H](O)CCCCn1c(=O)c2c(ncn2C)n(C)c1=O` [LSF, Lisofylline] was tested. Which “reversal of 12(S)-HETE-induced reduction in insulin secretion” value (human islets [1]; 50 μm LSF overnight pretreatment, then 1 nm 12(S)-HETE 4 hours, 11 mm glucose 1 hour) did it give?
A: The value was “reversed”.

Q: And the “reversal of 12(S)-HETE effects on metabolic activity (MTT assay)” value (human islets [3])?
A: Its value is “partially reversed”.
